Drawing on ChEMBL document CHEMBL1144426, “Adenosine kinase inhibitors. 4. 6,8-Disubstituted purine nucleoside derivatives. Synthesis, conformation, and enzyme inhibition” (J Med Chem, 2005), this text covers IC50 for 19 molecules.

The IC50 is the midpoint of a concentration-inhibition curve.

The target of the assay is Adenosine kinase (Homo sapiens, UniProt P55263). The assay can be described thus: Inhibitory activity against Human Recombinant Adenosine Kinase.
Sequence of Adenosine kinase (P55263 whole entry): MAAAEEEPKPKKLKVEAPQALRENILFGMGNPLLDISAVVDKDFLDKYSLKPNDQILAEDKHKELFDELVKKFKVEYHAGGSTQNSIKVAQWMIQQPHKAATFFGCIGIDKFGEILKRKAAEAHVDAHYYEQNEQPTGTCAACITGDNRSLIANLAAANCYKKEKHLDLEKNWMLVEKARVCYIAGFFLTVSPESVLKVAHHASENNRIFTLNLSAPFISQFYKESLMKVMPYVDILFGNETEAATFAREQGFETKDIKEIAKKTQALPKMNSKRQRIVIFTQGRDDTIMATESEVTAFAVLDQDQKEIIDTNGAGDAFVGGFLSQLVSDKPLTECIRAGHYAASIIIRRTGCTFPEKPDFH
For `C[C@H]1O[C@@H](n2cc(-c3ccccc3)c3c(N4CCc5ccccc54)ncnc32)[C@H](O)[C@@H]1O`, the concentration for half-maximal inhibition (IC50) amounted to 51 nM.

For the molecule `C=Cc1nc2c(Nc3ccccc3)ncnc2n1[C@@H]1O[C@H](CO)[C@@H](O)[C@H]1O`, the IC50 is 300 nM.

For `OC[C@H]1O[C@@H](n2c(I)nc3c(N4CCc5ccccc54)ncnc32)[C@H](O)[C@@H]1O`, the IC50 was 1000 nM.

As to `OC[C@H]1O[C@@H](n2cnc3c(N4CCc5ccccc54)ncnc32)[C@H](O)[C@@H]1O`, the IC50 was 500 nM.

For `OC[C@H]1O[C@@H](n2c(Cl)nc3c(Nc4ccccc4)ncnc32)[C@H](O)[C@@H]1O`, the half-inhibitory concentration (IC50) stood at 3600 nM.

For the molecule `OC[C@H]1O[C@@H](n2c(Nc3ccccc3)nc3c(Nc4ccccc4)ncnc32)[C@H](O)[C@@H]1O`, the half-maximal inhibitory concentration (IC50) was 90 nM.

On to `CSc1nc2c(Nc3ccccc3)ncnc2n1[C@@H]1O[C@H](CO)[C@@H](O)[C@H]1O`, for which the IC50 was found to be 1000 nM.

As to `CSc1nc2c(N3CCc4ccccc43)ncnc2n1[C@@H]1O[C@H](CO)[C@@H](O)[C@H]1O`, the concentration for half-maximal inhibition (IC50) was determined as 150 nM.

Turning to `C[C@H]1O[C@@H](n2c(Nc3ccccc3)nc3c(N4CCc5ccccc54)ncnc32)[C@H](O)[C@@H]1O`, the IC50 stood at 200 nM.

As for `C#Cc1nc2c(N3CCc4ccccc43)ncnc2n1[C@@H]1O[C@H](CO)[C@@H](O)[C@H]1O`, the IC50 came to 1000 nM.

For `OC[C@H]1O[C@@H](n2c(N3CCc4ccccc43)nc3c(Nc4ccccc4)ncnc32)[C@H](O)[C@@H]1O`, the concentration for half-maximal inhibition (IC50) was 7100 nM.

In the case of `OC[C@H]1O[C@@H](n2c(Cl)nc3c(N4CCc5ccccc54)ncnc32)[C@H](O)[C@@H]1O`, the 50% inhibitory concentration (IC50) is 480 nM.

`C=Cc1nc2c(N3CCc4ccccc43)ncnc2n1[C@@H]1O[C@H](CO)[C@@H](O)[C@H]1O`: the half-inhibitory concentration (IC50) was 60 nM.

Consider `OC[C@H]1O[C@@H](n2c(-c3ccco3)nc3c(Nc4ccccc4)ncnc32)[C@H](O)[C@@H]1O`, for which the IC50 worked out at 6900 nM.

Turning to `OC[C@H]1O[C@@H](n2c(-c3ccco3)nc3c(N4CCc5ccccc54)ncnc32)[C@H](O)[C@@H]1O`, the half-maximal inhibitory concentration (IC50) was determined as 2900 nM.

On to `OC[C@H]1O[C@@H](n2c(I)nc3c(Nc4ccccc4)ncnc32)[C@H](O)[C@@H]1O`, for which the IC50 came out at 4500 nM.

For the molecule `OC[C@H]1O[C@@H](n2c(Nc3ccccc3)nc3c(N4CCc5ccccc54)ncnc32)[C@H](O)[C@@H]1O`, the IC50 worked out at 19 nM.

For `CCc1nc2c(N3CCc4ccccc43)ncnc2n1[C@@H]1O[C@H](CO)[C@@H](O)[C@H]1O`, the half-inhibitory concentration (IC50) was determined as 230 nM.

For the molecule `OC[C@H]1O[C@@H](n2c(N3CCc4ccccc43)nc3c(N4CCc5ccccc54)ncnc32)[C@H](O)[C@@H]1O`, the IC50 was 2000 nM.
